Reference: patent US20120064044A1, “METHODS OF TREATING EDEMA RELATED TO ISCHEMIA-REPERFUSION” (priority 2009, published 2012)

Experiments:
[1] = test system: NF-κB activation mediated through stimulation by Toll-like receptor 2 (TLR2) ligands; assay: NF-κB reporter assay (fluc/β-gal) in HMVECs stimulated with TLR2 ligands; format: cell-based, human; details: transfected HMVECs pretreated 1 hour; Pam(3)Cys 25 μg/mL or LTA 1 μg/mL for 8 hours; FIG. 8
Text: FIG. 8 is a bar graph showing the effects of CRX-526 on NF-κB activation mediated through stimulation by Toll-like receptor 2 (TLR2) ligands. Human pulmonary microvascular endothelial cells (HMVECs) were transfected with recombinant first-generation E1, E3-deleted Ad.NF-κB-luciferase and consituitive β-galactosidase vectors so that when NF-κB is activated, the ratio of firefly luciferase (fluc)/β-galactosidase (β-gal) increases. Forty eight hours after transfection, the HMVECs were pretreated for 1 hour with various concentrations of CRX-526 (as shown on the x-axis) and exposed to TLR2 ligands Pam(3)Cys (25 μg/mL, darkly shaded bars) or lipoteichoic acid (LTA; 1 μg/mL, open bars) for 8 hours. Luciferase activity is normalized to β-galactosidase to control for infection efficiency.
(§1) Recombinant, first generation E1, E3-deleted adenovirus serotype 5 vectors were prepared (see Sanlioglu et al., J. Biol. Chem., 276, 30188-30198 (2001)) and HMVECs and AMs were transfected as previously described for epithelial cells. See Wu et al., Respir. Res., 6, 26 (2005).

NF-κB activation [2] = assay: NF-κB reporter assay (fluc/β-gal) in HMVECs stimulated with LPS or TNF; format: cell-based, human; details: FIG. 5B
Protocol: FIG. 5B is a bar graph showing the in vitro inhibition of NF-κB activation (based on firefly luciferase (fluc)/β-galactosidase (β-gal) activity) effected by 0.1, 1, 10, and 100 μg concentrations (i.e., Inhib 0.1, Inhib 1, Inhib 10, Inhib 100, respectively) of CRX-526. Fluc/β-gal was measured following stimulation of CRX-526-treated human pulmonary microvascular endothelial cells (HMVECs) with phosphate buffered saline (PBS) only (open bars), 10 ng/mL lipopolysaccharide (LPS) (spotted bars), 5 ng/mL LPS (striped bars), or 0.25 ng/mL tumor necrosis factor (TNF, darkly shaded bars). HMVECs that had not been treated with CRX-526 were used as a control. n=4/group, *p<0.05 compared to other values at same time point by ANOVA.
as §1

C57BL/6J mice = assay: Murine lung ischemia-reperfusion injury, edema by wet to dry weight ratio (W/D), C57BL/6J mice; format: in vivo, mouse; details: BL6 mice; 10 μg over 30 minutes starting 60 min prior to left hilar clamping for 1 hour; FIGS. 7A and 7B
Protocol: (§2) Mice were anesthetized with ketamine (0.1 mg/gm body weight) and xylazine (0.01 mg/gm) interperitoneally, followed by one-third of the initial dose hourly. Tracheotomy allowed mechanical ventilation (with a tidal volume of 0.4 mL, respiratory rate 120/min, I/E 0.4, PEEP 3 cm H2O, FiO2, 1.0) using a Columbus Instruments Ventilator CIV-101 (Columbus Instruments, Columbus, Ohio, United States of America). The right jugular vein was cannulated for infusion of albumin 2.5% in 0.9% saline, 450 μL/hour by syringe pump (Medfusion 2010i; Medex, Carlsbad, California, United States of America) to maintain hydration. Rectal temperature was monitored and maintained with a heating pad. The left pulmonary hilum was occluded for 1 hour with a microvascular clamp through a left thoracotomy. Reperfusion began with removal of the clamp. Animals were sacrificed at intervals ranging from 15 minutes to 3 hours by cardiectomy, and both lungs were excised. The apical portion of each lung was excised and immediately weighed, then desiccated in a 60° C. oven for 48 hours and re-weighed to determine wet to dry weight ratio (W/D). Remaining lung tissue was flash frozen in liquid nitrogen and stored at −80° C. Lungs excised immediately after sacrifice served as controls.
A further study was performed to compare the effects of pre-treatment with a TLR4 inhibitor. […]

OuJ mice = assay: Murine lung ischemia-reperfusion injury, edema by wet to dry weight ratio (W/D), OuJ mice; format: in vivo, mouse; design: dose or concentration left out as unconfirmed; details: intravenously over 30 minutes (200 μL of saline) starting 60 minutes before left hilar clamping, FIG. 5A
Protocol: as §2

NF-κB activation [3] = assay: NF-κB reporter assay (fluc/β-gal) in alveolar macrophages; format: cell-based, mouse; details: 1 μg/mL LPS; native OuJ AMs and AMs from chimeric strain P-M+; FIG. 4A
Protocol: FIG. 4A is a bar graph of NF-κB activation (as measured by firefly luciferase (fluc)/β-galactosidase (β-gal) activity) in alveolar macrophages (AMs) from chimeric mice twelve weeks following bone marrow transplant. The AMs were retrieved by bronchoalveolar lavage (BAL) and infected with Ad.NFκBLuc and Ad.CMV-LacZ, then incubated with either phosphate buffered saline (PBS; open bars) or 1 μg/mL lipopolysaccharide (LPS, darkly shaded bars). The observed firefly luciferase/β-galactosidase activity indicated complete replacement of recipient marrow from either chimeric HeJ strain (P+M−) or chimeric OuJ strain (P−M+). P=parenchymal cells, M=marrow-derived cells, +=intact TLR4 (OuJ), −=non-functional TLR4 (HeJ). AMs retrieved from non-irradiated HeJ and OuJ mice served as controls. n=4 experiments/group, p<0.0001.
AMs from HeJ and OuJ mice were harvested by BAL 120 days after BMT. The trachea was cannulated with a tailored 18 gauge catheter (Becton Dickinson, Sandy, Utah, United States of America). BAL was performed by slow tracheal delivery of 4 aliquots (35 μL×body weight in grams) of pre-warmed, sterile, endotoxin-, calcium-, and magnesium-free PBS with 0.2 mM EGTA. Lavage fluid was withdrawn by gentle suction, pooled for each mouse, and centrifuged at 250 g for 5 minutes. […]

| Compound | NF-κB activation stimulated by TLR2 ligands [1] | TNF stimulation of NF-κB activation (NF-κB activation [2]; HMVECs, 0.25 ng/mL TNF) | NF-κB activation in HMVECs exposed to LPS (NF-κB activation [2]; LPS 10 or 5 ng/mL, CRX-526 0.1, 1, 10, 100 μg) | edema (W/D) for up to 180 min of reperfusion (C57BL/6J mice) | edema (W/D) following 1 hour of ischemia-reperfusion (OuJ mice) | increase in luciferase activity (NF-κB activation [3]) |
| --- | --- | --- | --- | --- | --- | --- |
| CCCCCCCCCCC[C@H](CC(=O)N[C@H]1[C@H](OC[C@H](NC(=O)C[C@@H](CCCCCCCCCCC)OC(=O)CCCCC)C(=O)O)O[C@H](CO)[C@@H](OP(=O)(O)O)[C@@H]1OC(=O)C[C@@H](CCCCCCCCCCC)OC(=O)CCCCC)OC(=O)CCCCC [CRX-526] | reduced NF-κB activation | no impact | prevented NF-κB activation | little if any edema | prevented edema |  |
| lipopolysaccharide [LPS] |  |  |  |  |  | approximately 60 fold |
